From US20090105305A1, “Therapeutic Agents - 550” (AstraZeneca AB, priority 2006, published 2009)

Molecular target: T1, human Fatty Acid Synthase (Homo sapiens, UniProt P49327)
T1 construct: made in house
Test: Human FAS enzyme assay (decrease in NADPH fluorescence)
Format: biochemical
Conditions: % inhibition at a concentration of 100 micromolar
Excerpt: The compounds of the present invention are Fatty Acid Synthase inhibitors. […] Human and Rat FAS Enzyme Assay.
Fatty acid synthase is an enzyme complex that harbours seven enzymatic activities catalysing the reductive synthesis of long chain fatty acids from acetyl CoA and malonyl CoA to palmitate. When acetyl CoA and malonyl CoA are forming palmitate NADPH is consumed forming NADP. Since NADPH is fluorescent but not NADP the reaction can be measured by analysing the decrease in fluorescence.
Compounds were added to a black 384 well plate (Matrix) in a volume of 5 μl consisting of 20% DMSO and 80% Tris buffer pH 7.5, at a top concentration of 1 mM. NADPH, 30 μl of 166.6 μM, formulated in assay buffer (0.1M Tris ph7.5, 0.1 mM EDTA, 1 mM glutathione, 0.05% BSA), was then added to all of the wells of the plate. Fatty acid synthase Human or rat enzyme (0.4 μg, produced in house), dissolved in 20 mM Tris/HCl pH 7.5, 5 mM BOG, 1 mM TCEP, 10% glycerol, 1 mM EDTA, 150 mM NaCl, was then added to the plate in a volume of […]. Enzyme was added to all but the last two columns of the plate, to which, 10 μl of assay buffer was added (0.1M Tris ph7.5, 0.1 mM EDTA, 1 mM glutathione, 0.05% BSA) to provide a no enzyme assay control. Following a 15-minute incubation period, at room temperature, the plates were read on an Envision plate reader using 340 nm excitation and 460 nm emission filters. This served as a time zero background read. Substrates (an equal mix of both malonyl and acetyl CoA) were then added to the plates in a total volume of 5 μl. The concentrations of malonyl and acetyl CoA in the mixture were 500 μM and 150 μM respectively. Both were prepared as 10 mM stock solutions in distilled water and were subsequently diluted to working concentrations in assay buffer. Plates were then incubated for a further 60 minutes, at room temperature, before being read again on the Envision reader using the same parameters as previously used. The data was analysed by subtracting the background time zero data from that generated following the final 60 minute incubate and the percent inhibition compared to the maximum and minimum assay controls was determined. Sigmoid curves were fitted using Origin 7.5 Client software and IC50 values were determined.

T1 sequence (P49327 whole entry): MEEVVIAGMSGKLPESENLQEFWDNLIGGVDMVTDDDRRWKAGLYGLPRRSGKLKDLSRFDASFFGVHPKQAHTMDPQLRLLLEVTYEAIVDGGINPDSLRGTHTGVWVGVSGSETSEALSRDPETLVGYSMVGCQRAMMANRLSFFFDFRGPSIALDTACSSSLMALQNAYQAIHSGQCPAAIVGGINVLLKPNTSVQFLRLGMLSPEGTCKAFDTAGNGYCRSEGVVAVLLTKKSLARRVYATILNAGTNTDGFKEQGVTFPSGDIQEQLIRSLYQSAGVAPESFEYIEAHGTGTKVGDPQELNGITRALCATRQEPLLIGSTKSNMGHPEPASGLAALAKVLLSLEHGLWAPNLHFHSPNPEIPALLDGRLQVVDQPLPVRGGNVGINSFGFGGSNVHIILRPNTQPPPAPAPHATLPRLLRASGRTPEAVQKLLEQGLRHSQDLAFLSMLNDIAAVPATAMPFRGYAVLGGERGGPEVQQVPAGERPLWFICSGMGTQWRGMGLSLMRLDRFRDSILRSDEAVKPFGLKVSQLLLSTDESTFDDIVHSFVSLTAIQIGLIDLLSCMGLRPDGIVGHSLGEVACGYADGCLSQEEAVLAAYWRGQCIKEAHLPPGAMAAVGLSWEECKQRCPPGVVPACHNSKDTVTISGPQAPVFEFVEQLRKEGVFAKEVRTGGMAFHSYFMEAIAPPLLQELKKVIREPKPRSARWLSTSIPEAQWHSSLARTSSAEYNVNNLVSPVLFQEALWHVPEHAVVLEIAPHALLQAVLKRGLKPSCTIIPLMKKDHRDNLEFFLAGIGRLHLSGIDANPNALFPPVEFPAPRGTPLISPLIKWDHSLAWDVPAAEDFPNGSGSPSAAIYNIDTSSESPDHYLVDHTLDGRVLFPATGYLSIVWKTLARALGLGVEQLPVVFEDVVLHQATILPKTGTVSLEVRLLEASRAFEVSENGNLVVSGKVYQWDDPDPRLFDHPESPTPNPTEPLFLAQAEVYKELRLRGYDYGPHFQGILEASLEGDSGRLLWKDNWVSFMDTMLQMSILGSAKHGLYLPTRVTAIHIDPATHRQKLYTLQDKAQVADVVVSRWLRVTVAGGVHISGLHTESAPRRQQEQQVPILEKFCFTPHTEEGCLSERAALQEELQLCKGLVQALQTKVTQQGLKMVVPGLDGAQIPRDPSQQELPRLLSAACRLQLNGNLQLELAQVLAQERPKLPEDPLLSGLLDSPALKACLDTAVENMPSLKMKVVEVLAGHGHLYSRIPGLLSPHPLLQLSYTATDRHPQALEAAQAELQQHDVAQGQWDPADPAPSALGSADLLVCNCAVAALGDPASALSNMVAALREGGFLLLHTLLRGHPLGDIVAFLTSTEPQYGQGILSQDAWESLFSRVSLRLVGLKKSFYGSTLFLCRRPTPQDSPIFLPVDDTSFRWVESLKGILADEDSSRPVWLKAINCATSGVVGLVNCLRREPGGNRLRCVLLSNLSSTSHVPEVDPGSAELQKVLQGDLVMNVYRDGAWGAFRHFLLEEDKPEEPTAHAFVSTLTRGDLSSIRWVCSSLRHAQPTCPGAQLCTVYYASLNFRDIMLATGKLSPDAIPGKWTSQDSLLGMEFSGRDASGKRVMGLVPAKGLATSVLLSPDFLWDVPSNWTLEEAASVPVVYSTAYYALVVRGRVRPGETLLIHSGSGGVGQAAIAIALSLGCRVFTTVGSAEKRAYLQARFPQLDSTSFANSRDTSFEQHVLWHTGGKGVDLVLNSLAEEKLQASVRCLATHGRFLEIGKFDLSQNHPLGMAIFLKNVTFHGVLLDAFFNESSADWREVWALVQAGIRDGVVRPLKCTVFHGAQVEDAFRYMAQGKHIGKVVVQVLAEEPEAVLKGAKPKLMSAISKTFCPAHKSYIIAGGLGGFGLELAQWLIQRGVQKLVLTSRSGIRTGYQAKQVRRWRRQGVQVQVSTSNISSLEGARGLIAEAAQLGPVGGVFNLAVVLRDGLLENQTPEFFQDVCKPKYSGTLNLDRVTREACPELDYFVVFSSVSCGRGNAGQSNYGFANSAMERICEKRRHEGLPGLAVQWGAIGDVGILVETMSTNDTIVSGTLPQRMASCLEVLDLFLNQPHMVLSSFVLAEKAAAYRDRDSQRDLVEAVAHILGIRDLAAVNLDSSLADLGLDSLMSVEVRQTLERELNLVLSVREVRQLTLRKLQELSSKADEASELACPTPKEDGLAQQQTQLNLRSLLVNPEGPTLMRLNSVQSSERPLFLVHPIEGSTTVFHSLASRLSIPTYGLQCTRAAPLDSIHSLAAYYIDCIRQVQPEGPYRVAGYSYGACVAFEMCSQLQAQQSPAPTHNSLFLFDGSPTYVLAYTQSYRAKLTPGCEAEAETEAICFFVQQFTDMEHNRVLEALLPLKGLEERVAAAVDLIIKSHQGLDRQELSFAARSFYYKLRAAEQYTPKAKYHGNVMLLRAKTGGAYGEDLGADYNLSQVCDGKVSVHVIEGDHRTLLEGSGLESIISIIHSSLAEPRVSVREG

SMILES	inhibition at 100 µM [%]
Cc1ccc(C(=O)N2CCC(c3ccc(C#N)cc3)CC2)cc1NS(=O)(=O)CC1CCCC1 [Example 16, N-[5-[4-(4-cyanophenyl)piperidine-1-carbonyl]-2-methyl-phenyl]-1-cyclopentyl-methanesulfonamide]	95
Cc1ccc(C(=O)N2CCC(c3ccc(C#N)cc3)CC2)cc1NS(=O)(=O)C1CCCCC1 [Example 17, N-[5-[4-(4-cyanophenyl)piperidine-1-carbonyl]-2-methyl-phenyl]cyclohexanesulfonamide]	94
Cc1ccc(C(=O)N2CCC(c3ccc(C#N)cc3)CC2)cc1NS(=O)(=O)c1cccc(C#N)c1 [Example 21, 3-cyano-N-[5-[4-(4-cyanophenyl)piperidine-1-carbonyl]-2-methyl-phenyl]benzenesulfonamide]	90
CC(=O)Nc1ccc(S(=O)(=O)Nc2cc(C(=O)N3CCC(c4ccc(C#N)cc4)CC3)ccc2C)cc1 [Example 22, N-[4-[[5-[4-(4-cyanophenyl)piperidine-1-carbonyl]-2-methyl-phenyl]sulfamoyl]phenyl]acetamide]	95
CCCCOc1ccc(S(=O)(=O)Nc2cc(C(=O)N3CCC(c4ccc(C#N)cc4)CC3)ccc2C)cc1 [Example 24, 4-butoxy-N-[5-[4-(4-cyanophenyl)piperidine-1-carbonyl]-2-methyl-phenyl]benzenesulfonamide]	83
Cc1cc(C)c(C(=O)N2CCC(c3ccc(C#N)cc3)CC2)cc1NS(C)(=O)=O [Example 28, N-[5-[4-(4-cyanophenyl)piperidine-1-carbonyl]-2,4-dimethyl-phenyl]methanesulfonamide]	93
Cc1cc(C)c(C(=O)N2CCC(c3ccc(C#N)cc3)CC2)cc1NS(=O)(=O)Cc1ccccc1 [Example 29, N-[5-[4-(4-cyanophenyl)piperidine-1-carbonyl]-2,4-dimethyl-phenyl]-1-phenyl-methanesulfonamide]	93
COc1ccc(NS(=O)(=O)Cc2ccccc2)cc1C(=O)N1CCC(c2ccc(C#N)cc2)CC1 [Example 31, N-[3-[4-(4-cyanophenyl)piperidine-1-carbonyl]-4-methoxy-phenyl]-1-phenyl-methanesulfonamide]	83
Cc1ccc(NS(=O)(=O)C(C)C)cc1C(=O)N1CCC(c2ccc(C#N)cc2)CC1 [Example 32, N-[3-[4-(4-cyanophenyl)piperidine-1-carbonyl]-4-methyl-phenyl]propane-2-sulfonamide]	85
Cc1ccc(NS(=O)(=O)CCCCl)cc1C(=O)N1CCC(c2ccc(C#N)cc2)CC1 [Example 34, 3-chloro-N-[3-[4-(4-cyanophenyl)piperidine-1-carbonyl]-4-methyl-phenyl]propane-1-sulfonamide]	89
Cc1ccc(NS(=O)(=O)c2ccccc2)cc1C(=O)N1CCC(c2ccc(C#N)cc2)CC1 [Example 35, N-[3-[4-(4-cyanophenyl)piperidine-1-carbonyl]-4-methyl-phenyl]benzenesulfonamide]	89
CCS(=O)(=O)Nc1ccc(C)c(C(=O)N2CCC(c3ccc(C#N)cc3)CC2)c1 [Example 36, N-[3-[4-(4-cyanophenyl)piperidine-1-carbonyl]-4-methyl-phenyl]ethanesulfonamide]	88
COC(=O)CS(=O)(=O)Nc1ccc(C)c(C(=O)N2CCC(c3ccc(C#N)cc3)CC2)c1 [Example 38, methyl 2-[[3-[4-(4-cyanophenyl)piperidine-1-carbonyl]-4-methyl-phenyl]sulfamoyl]acetate]	83
Cc1ccc(NS(=O)(=O)c2cnoc2C)cc1C(=O)N1CCC(c2ccc(C#N)cc2)CC1 [Example 39, N-[3-[4-(4-cyanophenyl)piperidine-1-carbonyl]-4-methyl-phenyl]-5-methyl-1,2-oxazole-4-sulfonamide]	80
Cc1ccc(NS(=O)(=O)C2CC2)cc1C(=O)N1CCC(c2ccc(C#N)cc2)CC1 [Example 40, N-[3-[4-(4-cyanophenyl)piperidine-1-carbonyl]-4-methyl-phenyl]cyclopropanesulfonamide]	89
Cc1ccc(NS(=O)(=O)CC2CCCCC2)cc1C(=O)N1CCC(c2ccc(C#N)cc2)CC1 [Example 41, N-[3-[4-(4-cyanophenyl)piperidine-1-carbonyl]-4-methyl-phenyl]-1-cyclohexyl-methanesulfonamide]	96
Cc1ccc(NS(=O)(=O)C2CCCCC2)cc1C(=O)N1CCC(c2ccc(C#N)cc2)CC1 [Example 42, N-[3-[4-(4-cyanophenyl)piperidine-1-carbonyl]-4-methyl-phenyl]cyclohexanesulfonamide]	90
Cc1ccc(NS(=O)(=O)CC2CCCC2)cc1C(=O)N1CCC(c2ccc(C#N)cc2)CC1 [Example 43, N-[3-[4-(4-cyanophenyl)piperidine-1-carbonyl]-4-methyl-phenyl]-1-cyclopentyl-methanesulfonamide]	93
CC(=O)Nc1ccc(S(=O)(=O)Nc2ccc(C)c(C(=O)N3CCC(c4ccc(C#N)cc4)CC3)c2)cc1 [Example 48, N-[4-[[3-[4-(4-cyanophenyl)piperidine-1-carbonyl]-4-methyl-phenyl]sulfamoyl]phenyl]acetamide]	84

Further lines, results first:

inhibition at 100 µM [%]	SMILES
93	Cc1ccc(C(=O)N2CCC(c3ccc(C#N)cc3)CC2)cc1NS(=O)(=O)CC1CCCCC1 [Example 15, N-[5-[4-(4-cyanophenyl)piperidine-1-carbonyl]-2-methyl-phenyl]-1-cyclohexyl-methanesulfonamide]
96	Cc1ccc(C(=O)N2CCC(c3ccc(C#N)cc3)CC2)cc1NS(=O)(=O)c1ccc(Cl)s1 [Example 19, 5-chloro-N-[5-[4-(4-cyanophenyl)piperidine-1-carbonyl]-2-methyl-phenyl]thiophene-2-sulfonamide]
85	Cc1ccc(C(=O)N2CCC(c3ccc(C#N)cc3)CC2)cc1NS(=O)(=O)c1ccccc1C#N [Example 20, 2-cyano-N-[5-[4-(4-cyanophenyl)piperidine-1-carbonyl]-2-methyl-phenyl]benzenesulfonamide]
89	Cc1ccc(C(=O)N2CCC(c3ccc(C#N)cc3)CC2)cc1NS(=O)(=O)c1ccc(C#N)cc1 [Example 23, 4-cyano-N-[5-[4-(4-cyanophenyl)piperidine-1-carbonyl]-2-methyl-phenyl]benzenesulfonamide]
87	COc1ccccc1S(=O)(=O)Nc1cc(C(=O)N2CCC(c3ccc(C#N)cc3)CC2)ccc1C [Example 25, N-[5-[4-(4-cyanophenyl)piperidine-1-carbonyl]-2-methyl-phenyl]-2-methoxy-benzenesulfonamide]
94	Cc1ccc(C(=O)N2CCC(c3ccc(C#N)cc3)CC2)cc1NS(=O)(=O)Cc1ccccc1F [Example 26, N-[5-[4-(4-cyanophenyl)piperidine-1-carbonyl]-2-methyl-phenyl]-1-(2-fluorophenyl)methanesulfonamide]
96	Cc1ccc(C(=O)N2CCC(c3ccc(C#N)cc3)CC2)cc1NS(=O)(=O)Cc1cccc(F)c1 [Example 27, N-[5-[4-(4-cyanophenyl)piperidine-1-carbonyl]-2-methyl-phenyl]-1-(3-fluorophenyl)methanesulfonamide]
91	CCCS(=O)(=O)Nc1ccc(C)c(C(=O)N2CCC(c3ccc(C#N)cc3)CC2)c1 [Example 33, N-[3-[4-(4-cyanophenyl)piperidine-1-carbonyl]-4-methyl-phenyl]propane-1-sulfonamide]
91	CCCCS(=O)(=O)Nc1ccc(C)c(C(=O)N2CCC(c3ccc(C#N)cc3)CC2)c1 [Example 37, N-[3-[4-(4-cyanophenyl)piperidine-1-carbonyl]-4-methyl-phenyl]butane-1-sulfonamide]
83	Cc1ccc(NS(=O)(=O)c2ccc(Cl)s2)cc1C(=O)N1CCC(c2ccc(C#N)cc2)CC1 [Example 45, 5-chloro-N-[3-[4-(4-cyanophenyl)piperidine-1-carbonyl]-4-methyl-phenyl]thiophene-2-sulfonamide]
79	Cc1ccc(NS(=O)(=O)c2ccccc2C#N)cc1C(=O)N1CCC(c2ccc(C#N)cc2)CC1 [Example 46, 2-cyano-N-[3-[4-(4-cyanophenyl)piperidine-1-carbonyl]-4-methyl-phenyl]benzenesulfonamide]
85	Cc1ccc(NS(=O)(=O)c2cccc(C#N)c2)cc1C(=O)N1CCC(c2ccc(C#N)cc2)CC1 [Example 47, 3-cyano-N-[3-[4-(4-cyanophenyl)piperidine-1-carbonyl]-4-methyl-phenyl]benzenesulfonamide]
